# In US10597388B2, “Pyridazinone herbicides” (FMC CORPORATION, priority 2014, dated 2020):
# Legend:
# Assay in all cases: Test D controlled growth environment herbicide test, pre- and postemergence
# Format in all cases: in vivo
# [1] = tested on: barley, spring (spring barley, Hordeum vulgare)
# Excerpt: (§1) Seeds of plant species selected from bluegrass (annual bluegrass, Poa annua), blackgrass (Alopecurus myosuroides), Canada thistle (Cirsium arvense), canarygrass (Phalaris minor), chickweed (common chickweed, Stellaria media), geranium, cutleaf (cutleaf geranium, Geranium dissectum), galium (catchweed bedstraw, Galium aparine), bromegrass, downy (downy bromegrass, Bromus tectorum), field poppy (Papaver rhoeas), field violet (Viola arvensis), foxtail, green (green foxtail, Setaria viridis), deadnettle (henbit deadnettle, Lamium amplexicaule), ryegrass, Italian (Italian ryegrass, Lolium multiflorum), kochia (Kochia scoparia), lambsquarters (Chenopodium album), oilseed rape (Brassica napus), pigweed (Amaranthus retroflexus), chamomile (scentless chamomile, Matricaria inodora), Russian thistle (Salsola kali), speedwell (bird's-eye speedwell, Veronica persica), barley, spring (spring barley, Hordeum vulgare), wheat, spring (spring wheat, Triticum aestivum), buckwheat, wild (wild buckwheat, Polygonum convolvulus), mustard, wild (wild mustard, Sinapis arvensis), oat, wild (wild oat, Avena fatua), radish, wild (wild radish, Raphanus raphanistrum), windgrass (Apera spica-venti), barley, winter (winter barley, Hordeum vulgare), and wheat, winter (winter wheat, Triticum aestivum) were planted into a silt loam soil and treated preemergence with test chemicals formulated in a non-phytotoxic solvent mixture which included a surfactant.
# (§2) At the same time, these species were planted in pots containing Redi-Earth® planting medium (Scotts Company, 14111 Scottslawn Road, Marysville, Ohio 43041) comprising spaghnum peat moss, vermiculite, wetting agent and starter nutrients and treated with postemergence applications of the test chemicals formulated in the same manner. Plants ranged in height from 2 to 18 cm (1- to 4-leaf stage). Treated plants and controls were maintained in a controlled growth environment for 14 to 21 d after which time all species were compared to controls and visually evaluated. Plant response ratings, summarized in Table D, are based on a scale of 0 to 100 where 0 is no effect and 100 is complete control. A dash (-) response means no test result.
# [2] = tested on: mustard, wild (wild mustard, Sinapis arvensis)
# Excerpt: as §1, §2
# [3] = tested on: deadnettle (henbit deadnettle, Lamium amplexicaule)
# Excerpt: as §1, §2
# [4] = tested on: chickweed (common chickweed, Stellaria media)
# Excerpt: as §1, §2
# [5] = tested on: canarygrass (Phalaris minor)
# Excerpt: as §1, §2
# [6] = tested on: field poppy (Papaver rhoeas)
# Excerpt: as §1, §2
# [7] = tested on: wheat, winter (winter wheat, Triticum aestivum)
# Excerpt: as §1, §2
# [8] = tested on: foxtail, green (green foxtail, Setaria viridis)
# Excerpt: as §1, §2
# [9] = tested on: ryegrass, Italian (Italian ryegrass, Lolium multiflorum)
# Excerpt: as §1, §2
# [10] = tested on: barley, winter (winter barley, Hordeum vulgare)
# Excerpt: as §1, §2
# [11] = tested on: radish, wild (wild radish, Raphanus raphanistrum)
# Excerpt: as §1, §2
# [12] = tested on: bluegrass (annual bluegrass, Poa annua)
# Excerpt: as §1, §2
# [13] = tested on: windgrass (Apera spica-venti)
# Excerpt: as §1, §2
# [14] = Postemergence, 31 g ai/ha, scale 0 to 100 (0 no effect, 100 complete control)
# [15] = Postemergence, 125 g ai/ha, visual rating on scale 0 (no effect) to 100 (complete control), 14 to 21 d
# [16] = Postemergence, 250 g ai/ha, scale 0 to 100 (0 no effect, 100 complete control)
# [17] = Preemergence, 62 g ai/ha, scale 0 to 100 (0 no effect, 100 complete control)
# [18] = Preemergence, 125 g ai/ha, scale 0 to 100 (0 no effect, 100 complete control)
# [19] = Preemergence, 250 g ai/ha, scale 0 to 100 (0 no effect, 100 complete control)
# [20] = postemergence, 62 g ai/ha, scale 0 to 100, 0 no effect, 100 complete control
structure (smiles),measurement,setting,value
CCC(=O)Oc1c(C)nn(C)c(=O)c1-c1c(C)sc2ccc(Cl)cc12 [Compound 109],"Barley, Spring plant response rating",[1]; [14],0
same,"Plant response rating, Barley, Spring",[1]; [15],10
same,"Plant response rating, Barley, Spring",[1]; [16],25
same,"Plant response rating (scale of 0 to 100), Barley, Spring","[1]; Preemergence, 31 g ai/ha",0
same,"Plant response rating, Barley, Spring",[1]; [17],0
same,"Plant response rating, Barley, Spring",[1]; [18],5
same,"Plant response rating, Barley, Spring",[1]; [19],5
same,"Plant response rating, Barley, Spring",[1]; [20],5
same,"Mustard, Wild plant response rating",[2]; [14],60
same,"Plant response rating, Mustard, Wild",[2]; [15],90
same,"Plant response rating, Mustard, Wild",[2]; [16],100
same,"Plant response rating (scale of 0 to 100), Mustard, Wild","[2]; Preemergence, 31 g ai/ha",5
same,"Plant response rating (scale of 0 to 100), Mustard, Wild","[2]; Preemergence, 62 g ai/ha",75
same,"Plant response rating, Mustard, Wild",[2]; [18],100
same,"Plant response rating, Mustard, Wild",[2]; [19],100
same,"Plant response rating, Mustard, Wild",[2]; [20],85
same,Deadnettle plant response rating,[3]; [14],20
same,"Plant response rating, Deadnettle",[3]; [15],70
same,"Plant response rating, Deadnettle",[3]; [16],95
same,"Plant response rating (scale of 0 to 100), Deadnettle","[3]; Preemergence, 31 g ai/ha",0
same,"Plant response rating (scale of 0 to 100), Deadnettle","[3]; Preemergence, 62 g ai/ha",60
same,"Plant response rating, Deadnettle",[3]; [18],80
same,"Plant response rating, Deadnettle",[3]; [19],95
same,"Plant response rating, Deadnettle",[3]; [20],50
same,Chickweed plant response rating,[4]; [14],100
same,"Plant response rating, Chickweed",[4]; [15],100
same,"Plant response rating, Chickweed",[4]; [16],100
same,"Plant response rating (scale of 0 to 100), Chickweed","[4]; Preemergence, 31 g ai/ha",100
same,"Plant response rating (scale of 0 to 100), Chickweed","[4]; Preemergence, 62 g ai/ha",100
same,"Plant response rating, Chickweed",[4]; [18],100
same,"Plant response rating, Chickweed",[4]; [19],100
same,"Plant response rating, Chickweed",[4]; [20],100
same,Canarygrass plant response rating,[5]; [14],40
same,"Plant response rating, Canarygrass",[5]; [15],80
same,"Plant response rating, Canarygrass",[5]; [16],90
same,"Plant response rating (scale of 0 to 100), Canarygrass","[5]; Preemergence, 31 g ai/ha",35
same,"Plant response rating (scale of 0 to 100), Canarygrass","[5]; Preemergence, 62 g ai/ha",75
same,"Plant response rating, Canarygrass",[5]; [18],90
same,"Plant response rating, Canarygrass",[5]; [19],98
same,"Plant response rating, Canarygrass",[5]; [20],55
same,Field Poppy plant response rating,[6]; [14],45
same,"Plant response rating, Field Poppy",[6]; [15],75
same,"Plant response rating, Field Poppy",[6]; [16],85
same,"Plant response rating (scale of 0 to 100), Field Poppy","[6]; Preemergence, 31 g ai/ha",100
same,"Plant response rating (scale of 0 to 100), Field Poppy","[6]; Preemergence, 62 g ai/ha",100
same,"Plant response rating, Field Poppy",[6]; [18],100
same,"Plant response rating, Field Poppy",[6]; [19],100
same,"Plant response rating, Field Poppy",[6]; [20],50
same,"Wheat, Winter plant response rating",[7]; [14],10
same,"Plant response rating, Wheat, Winter",[7]; [15],25
same,"Plant response rating, Wheat, Winter",[7]; [16],35
same,"Plant response rating (scale of 0 to 100), Wheat, Winter","[7]; Preemergence, 31 g ai/ha",0
same,"Plant response rating (scale of 0 to 100), Wheat, Winter","[7]; Preemergence, 62 g ai/ha",0
same,"Plant response rating, Wheat, Winter",[7]; [18],5
same,"Plant response rating, Wheat, Winter",[7]; [19],20
same,"Plant response rating, Wheat, Winter",[7]; [20],15
same,"Foxtail, Green plant response rating",[8]; [14],55
same,"Plant response rating, Foxtail, Green",[8]; [15],75
same,"Plant response rating, Foxtail, Green",[8]; [16],85
same,"Plant response rating (scale of 0 to 100), Foxtail, Green","[8]; Preemergence, 31 g ai/ha",0
same,"Plant response rating (scale of 0 to 100), Foxtail, Green","[8]; Preemergence, 62 g ai/ha",65
same,"Plant response rating, Foxtail, Green",[8]; [18],75
same,"Plant response rating, Foxtail, Green",[8]; [19],95
same,"Plant response rating, Foxtail, Green",[8]; [20],65
same,"Ryegrass, Italian plant response rating",[9]; [14],85
same,"Plant response rating, Ryegrass, Italian",[9]; [15],95
same,"Plant response rating, Ryegrass, Italian",[9]; [16],100
same,"Plant response rating (scale of 0 to 100), Ryegrass, Italian","[9]; Preemergence, 31 g ai/ha",80
same,"Plant response rating (scale of 0 to 100), Ryegrass, Italian","[9]; Preemergence, 62 g ai/ha",95
same,"Plant response rating, Ryegrass, Italian",[9]; [18],100
same,"Plant response rating, Ryegrass, Italian",[9]; [19],100
same,"Plant response rating, Ryegrass, Italian",[9]; [20],85
same,"Barley, Winter plant response rating",[10]; [14],5
same,"Plant response rating, Barley, Winter",[10]; [15],5
same,"Plant response rating, Barley, Winter",[10]; [16],20
same,"Plant response rating (scale of 0 to 100), Barley, Winter","[10]; Preemergence, 31 g ai/ha",0
same,"Plant response rating, Barley, Winter",[10]; [17],0
same,"Plant response rating, Barley, Winter",[10]; [18],0
same,"Plant response rating, Barley, Winter",[10]; [19],10
same,"Plant response rating, Barley, Winter",[10]; [20],0
same,"Radish, Wild plant response rating",[11]; [14],75
same,"Plant response rating, Radish, Wild",[11]; [15],90
same,"Plant response rating, Radish, Wild",[11]; [16],100
same,"Plant response rating (scale of 0 to 100), Radish, Wild","[11]; Preemergence, 31 g ai/ha",25
same,"Plant response rating (scale of 0 to 100), Radish, Wild","[11]; Preemergence, 62 g ai/ha",75
same,"Plant response rating, Radish, Wild",[11]; [18],90
same,"Plant response rating, Radish, Wild",[11]; [19],95
same,"Plant response rating, Radish, Wild",[11]; [20],75
same,Bluegrass plant response rating,[12]; [14],5
same,"Plant response rating, Bluegrass",[12]; [15],25
same,"Plant response rating, Bluegrass",[12]; [16],45
same,"Plant response rating (scale of 0 to 100), Bluegrass","[12]; Preemergence, 31 g ai/ha",10
same,"Plant response rating, Bluegrass",[12]; [17],20
same,"Plant response rating, Bluegrass",[12]; [18],30
same,"Plant response rating, Bluegrass",[12]; [19],60
same,"Plant response rating, Bluegrass",[12]; [20],15
same,Windgrass plant response rating,[13]; [14],60
same,"Plant response rating, Windgrass",[13]; [15],80
same,"Plant response rating, Windgrass",[13]; [16],90
same,"Plant response rating (scale of 0 to 100), Windgrass","[13]; Preemergence, 31 g ai/ha",55
same,"Plant response rating (scale of 0 to 100), Windgrass","[13]; Preemergence, 62 g ai/ha",60
same,"Plant response rating, Windgrass",[13]; [18],80
same,"Plant response rating, Windgrass",[13]; [19],100
same,"Plant response rating, Windgrass",[13]; [20],65
